Experimental findings from article PMC5597618, “Identification and characterization of the novel reversible and selective cathepsin X inhibitors” (Scientific Reports, 2017) are described below.

The subject of one experiment is PC-3 cells. Description: Real time cell migration assay (xCELLigence, CIM plates). The format is cell-based, human. The note with it: 10 μM; compound in upper and bottom compartments; vs DMSO. Here is the method: Human prostate cancer cell line PC-3 cells (obtained from ATCC, Manassas, USA; ATCC Number: CRL-1435) were cultured in F-12 (Gibco) and Advanced DMEM (Gibco) (1:1) with 10% FBS, 1% penicillin/streptomycin and 1% L-glutamine. Rat pheochromocytoma PC-12 cells (obtained from ATCC, Manassas, USA; ATCC Number: CRL-1721) were cultured in Advanced DMEM (Gibco) with 5% FBS, 10% heat-inactivated horse serum, 1% penicillin/streptomycin and 1% L-glutamine.
Cell migration assay was performed on a Real-Time Cell Analyzer Dual Plate (RTCA DP) Instrument, xCELLigence System (ACEA Biosciences). CIM plates were coated with fibronectin (10 μg/ml, BD Biosciences) on the down and upper side of the microporous PET membrane for 30 min at room temperature and 2 hours at 37 °C, respectively. Excess fibronectin was removed and wells washed with phosphate buffer saline (PBS). Compounds (10 μM) were added to the complete media (lower chambers) or serum-free media (upper chambers). 0.1% DMSO was used as a control. 2 × 10^4 cells were plated per well. In additional experimental setting, inhibitors were added only to the upper chambers 3 hours after experiment started in order to measure their impact only on the cell migration and not the adhesion. Impedance data, reported as cell index, were measured continuously every 15 min for 72 hours and then analyzed with the RTCA Software (ACEA Biosciences, Inc.). Results are normalized to cells treated with DMSO.

The target of the next experiment is T1, Cathepsin H (Homo sapiens, UniProt P09668).
T1 construct: native cathepsin H was isolated from human liver; from tissue; host or cells: human liver
The experiment is described as follows: Ki against cathepsin H (Z-R-AMC). The format is biochemical. To be noted: SigmaPlot at 3 different substrate concentrations; pH 6.8. Here is the method: (§1) Recombinant or native human cathepsins were used: recombinant cathepsin X and cathepsin S were expressed in Pichia pastoris, recombinant cathepsins B and L in E. coli, [43], native cathepsin H was isolated from human liver. Assay buffers for determining activities of cathepsins X and L consisted of 100 mM sodium acetate buffer, pH 5.5, for cathepsins H, S and B (endopeptidase activity) of 100 mM phosphate buffer pH 6.8, 6.5 and 6.0, respectively and for cathepsin B (exopeptidase activity) of 60 mM acetate buffer pH 5.0. Each assay buffer contained 0.01% Triton X-100 to prevent false positive inhibition due to aggregation of compounds[45], 5 mM cysteine, 1.5 mM EDTA and 0.1% PEG 8000. Enzymes were activated at 37 °C for 5 min before the assays.
(§2) Ki was determined by measuring the initial rate of hydrolysis at three different substrate concentrations (Supplementary Table S2) in the presence of seven different compound concentrations (0, 20, 40, 60, 80, 100 and 200 μM). 90 μL of the activated cathepsin was added to a black 96-well plate with 5 μL of the substrate and 5 μL of the compound. Formation of the fluorescent degradation product was monitored continuously at 460 nm ± 10 nm with excitation at 380 nm ± 20 nm (for AMC substrates) and, as noted above for Abz substrates, at 37 °C. All measurements were performed twice and in duplicate. The resulting data were analyzed by non-linear regression using the software SigmaPlot®, Enzyme Kinetics Module™ 1.3 and were fitted to the equation v = v max [S]/([S] (1 + [I]/αK i ) + K m (1 + [I]/K i )) (first group of compounds). For Ki determination against cathepsin X for the compounds from the second group, progress curves in the absence and presence of each putative inhibitor were fitted to the reaction mechanism presented in Fig. 3b. In this case the resulting data as well as reactivation curves were fitted to the equation system presented in Fig. 3c using ENZO application. For calculation of kinetic parameters from reaction progress curves the fluorescence coefficient for conversion of arbitrary fluorescence units to concentration was first determined. The fluorescence coefficient was calculated as the slope from the plot of initial substrate concentration vs. height of the plateau of the progress curve after complete hydrolysis of increasing concentrations of substrate, using linear regression.
(§3) Supplementary Table S2. Substrates used for the various cathepsins and their concentrations […]
(§4) Enzyme Substrate Concentration (µM) Reference/Company cathepsin X Abz-FEK(Dnp)-OH 3.25, 6.5, 13 Puzer et al.3 cathepsin B - endopept. Z-RR-AMC 60, 180, 360 Bachem cathepsin B - exopept. Abz-GIVRAK(Dnp)-OH 1, 3, 6 Bachem cathepsin S Z-VVR-AMC 0.5, 1, 1.5 Biomol cathepsin L Z-FR-AMC 0.5, 1, 4 Bachem cathepsin H Z-R-AMC 20, 80, 160 Biomol […]

Experiment [1] addresses T2, Cathepsin B (exopeptidase a.) (Homo sapiens, UniProt P07858).
T2 construct: made in house; host or cells: E. coli
Description: Ki against cathepsin B exopeptidase activity (Abz-GIVRAK(Dnp)-OH). The format is biochemical. The note with it: SigmaPlot at 3 different substrate concentrations; pH 5.0. Here is the method: as §1, §2, §3, §4

For experiment [2], the target named is T3, cathepsin X in lysates of PC-3 cells (Homo sapiens, UniProt Q9UBR2).
T3 construct: endogenous in cells; host or cells: PC-3
Description: Cathepsin X activity in PC-3 cell lysates. The format is cell-based. To be noted: 10 μM. How it is done: To detect cathepsin X activity in cell lysates, 95 μL of activated cell lysates (0.2 mg/mL total protein in assay buffer) were added to a black 96-well plate containing 5 μL of the substrate. The further procedure was the same as above. In some experiments lysates of non-treated cells were pre-incubated with 10 μM of compounds for 30 minutes and then activity was measured as described above.
For testing the enzyme activity in cell lysates, cells were treated with 10 μM of compounds. After 24 hours lysates were prepared in 50 mM Na acetate buffer pH 5.5 with 1 mM EDTA, 100 mM NaCl and 0.25% Triton X-100. Total protein concentration was determined by DC Protein Assay (Bio Rad) according to the instructions.

For another experiment, the target named is T4, Cathepsin S (Homo sapiens, UniProt P25774).
T4 construct: made in house; host or cells: Pichia pastoris
Description: Ki against cathepsin S (Z-VVR-AMC). The experiment is classed as biochemical. To be noted: SigmaPlot at 3 different substrate concentrations; pH 6.5. How it is done:
as §1, §2, §3, §4

In experiment [3] the target is T5, Cathepsin B (endopeptidase a.) (Homo sapiens, UniProt P07858).
T5 construct: made in house; host or cells: E. coli
The experiment is described as follows: Ki against cathepsin B endopeptidase activity (Z-RR-AMC). The experiment is classed as biochemical. To be noted: SigmaPlot at 3 different substrate concentrations; pH 6.0. Here is the method:
as §1, §2, §3, §4

The target in a further experiment is T6, Cathepsin L (Homo sapiens, UniProt P07711).
T6 construct: made in house; host or cells: E. coli
Description: Ki against cathepsin L (Z-FR-AMC). The experiment is classed as biochemical. To be noted: SigmaPlot at 3 different substrate concentrations; pH 5.5. Here is the method: as §1, §2, §3, §4

Experiment [4] addresses T7, cathepsin X (Homo sapiens, UniProt Q9UBR2). Description: Determination of Ki values and inhibition mechanism against cathepsin X (Abz-FEK(Dnp)-OH substrate). The arrangement: made in house; host or cells: Pichia pastoris. The experiment is classed as biochemical. How it is done:
as §1, §2, §3, §4

Experiment [5] has as its target T7, cathepsin X. Description: Determination of relative inhibition of cathepsin X. The experiment is classed as biochemical. Details: made in house; host or cells: Pichia pastoris. How it is done:
as §1
Abz-FEK(Dnp)-OH was used as cathepsin X specific substrate in activity assays. 90 μL of activated cathepsin X (20 nM) was added to a black 96-well plate with 5 μL of substrate (3.25 μM final concentration) and 5 μL of the compound (50 μM final concentration). The reaction was monitored continuously at 420 nm ± 10 nm with excitation at 320 nm ± 20 nm and at 37 °C. Relative inhibition (%) was calculated with the equation (1 − v i/v 0) × 100, where v i is reaction velocity in the presence of the compound and v 0 is reaction velocity without the compound.

The mark [6] stands for this setting: screening at 50 μM compound, read-out: relative inhibition of cathepsin X.

Where two headings read alike, the source gives them in different places. Where only a bound is given, the exact number is not on record here.

T7 sequence (Q9UBR2 62-303): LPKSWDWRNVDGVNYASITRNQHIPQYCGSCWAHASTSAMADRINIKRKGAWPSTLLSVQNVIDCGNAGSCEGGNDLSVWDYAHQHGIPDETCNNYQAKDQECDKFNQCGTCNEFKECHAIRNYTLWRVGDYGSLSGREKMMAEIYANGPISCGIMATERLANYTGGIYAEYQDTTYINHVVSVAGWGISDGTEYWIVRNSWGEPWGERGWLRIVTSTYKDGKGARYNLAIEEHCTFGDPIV
T4 sequence (P25774 115-331): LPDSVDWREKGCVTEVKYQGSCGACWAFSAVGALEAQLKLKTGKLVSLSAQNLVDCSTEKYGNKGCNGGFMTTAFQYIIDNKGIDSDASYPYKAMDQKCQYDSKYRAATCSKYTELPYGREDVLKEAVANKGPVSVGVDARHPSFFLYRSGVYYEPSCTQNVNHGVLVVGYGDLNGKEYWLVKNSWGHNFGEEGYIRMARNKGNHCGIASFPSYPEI
T3 sequence (Q9UBR2 62-303): as the sequence (Q9UBR2 62-303) above
T6 sequence (P07711 114-333): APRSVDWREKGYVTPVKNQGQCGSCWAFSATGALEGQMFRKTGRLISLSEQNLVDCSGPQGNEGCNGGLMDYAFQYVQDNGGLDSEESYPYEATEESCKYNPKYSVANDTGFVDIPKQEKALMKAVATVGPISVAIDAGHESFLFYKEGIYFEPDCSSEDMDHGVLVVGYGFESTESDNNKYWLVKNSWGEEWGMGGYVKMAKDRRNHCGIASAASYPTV
T1 sequence (P09668 116-335 limits assumed, other chains not shown): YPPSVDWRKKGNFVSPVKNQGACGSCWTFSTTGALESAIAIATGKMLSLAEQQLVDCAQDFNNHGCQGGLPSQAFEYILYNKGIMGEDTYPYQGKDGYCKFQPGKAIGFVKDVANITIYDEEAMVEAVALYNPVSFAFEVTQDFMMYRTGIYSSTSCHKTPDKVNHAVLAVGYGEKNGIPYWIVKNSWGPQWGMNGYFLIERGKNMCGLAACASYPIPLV

Turning to `Cc1[nH]c2ccccc2c1C(=O)CSc1n[nH]c(N)n1` [Compound 1, 2-((5-Amino-1H-1,2,4-triazol-3-yl)thio)-1-(2-methyl-1H-indol-3-yl)ethanone], in the experiment on PC-3 cells, the “inhibition of PC-3 cell migration” value is on record as “failed to affect cell migration”. Also, the Ki – broadly, the equilibrium dissociation constant of an inhibitor or competing ligand from its target – at Cathepsin H was 1870 ± 240 µM; in experiment [1], 371 ± 97.9 µM; on Cathepsin S it was above 1000 µM; in [3], above 1000 µM; at Cathepsin L, 975 ± 101 µM; at cathepsin X [4] (first group, SigmaPlot non-linear regression at 3 different substrate concentrations), 38.4 ± 0.2 µM. Also, the “inhibition of cathepsin X enzyme activity in lysates of PC-3 cells” value in [2] is “trend toward less potent inhibition”. Besides, the inhibition (in general, the drop in the measured response relative to a control, in per cent) at 50 µM on cathepsin X [5] (setting [6]) fell in the range of 60 to 75%.

Regarding `Cn1cnc(SCC(=O)c2ccc3c(c2)OCCO3)n1` [Compound 12, 1-(2,3-Dihydrobenzo[b][1,4]dioxin-6-yl)-2-((1-methyl-1H-1,2,4-triazol-3-yl)thio)ethanone], the “inhibition of PC-3 cell migration” value with PC-3 cells is “failed to affect cell migration”. Moreover, the Ki at Cathepsin H is above 500 µM; in [1] it was 120.5 ± 0.9 µM; in [3], above 500 µM; on Cathepsin L, above 500 µM; at cathepsin X [4] (second group, progress curve analysis with ENZO), 5.88 ± 0.21 µM. In experiment [2], the “inhibition of cathepsin X enzyme activity in lysates of PC-3 cells” value is on record as “trend toward less potent inhibition”. Moreover, the “Ki Cathepsin S” value on Cathepsin S was “n.i”. Also, at cathepsin X [4] (second group, ENZO), the Inhibition mechanism result is given as “competitive”. For the same compound, the inhibition at 50 µM on cathepsin X [5] (setting [6]) is above 70%; on cathepsin X [5] (second group, 50 μM compound, 1 h preincubation, read-out: % inhibition (1 h preincubation)), 82%.
